According to PubChem BioAssay AID248 (DTP/NCI, 2004):
Several values for one entry are separate records, joined by “and”; a condition that tells them apart may be missing. Equal entries are not always repeated. Toxic doses and inconclusive results are not listed. Cut-off read from the data, not from the text of the source: active = T/C of 150% or more; inactive = T/C below 125%.

Test system: L1210 leukemia ip in BDF1 mice, survival T/C
Test: NCI In Vivo Anticancer Drug Screen. Data for tumor model L1210 Leukemia (intraperitoneal) in B6D2F1 (BDF1) mice
Details: endpoint: mean survival time, higher = longer survival
Procedure, shortened: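 Mice bearing the transplanted tumor received compound or vehicle. Survival of the treated group was divided by that of the vehicle-treated control group to give the ratio.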

[1] = dose: 25.0 mg/kg/injection, schedule: Q04DX002 (ip), vehicle: Klucel (hydroxypropylcellulose) (HPC)
[2] = dose: 50.0 mg/kg/injection, schedule: Q04DX002 (ip), vehicle: Klucel (hydroxypropylcellulose) (HPC)
[3] = dose: 200.0 mg/kg/injection, schedule: Q04DX002 (ip), vehicle: saline with Tween-80
[4] = dose: 100.0 mg/kg/injection, schedule: Q04DX002 (ip), vehicle: Klucel (hydroxypropylcellulose) (HPC)
[5] = dose: 100.0 mg/kg/injection, schedule: Q01DX001 (ip), vehicle: saline
[6] = dose: 200.0 mg/kg/injection, schedule: Q01DX001 (ip), vehicle: saline
[7] = dose: 100.0 mg/kg/injection, schedule: Q04DX002 (ip), vehicle: saline with Tween-80
[8] = dose: 400.0 mg/kg/injection, schedule: Q01DX001 (ip), vehicle: saline
[9] = dose: 100.0 mg/kg/injection, schedule: Q04DX003 (ip), vehicle: saline with Tween-80

Measured: T/C

CC(C)(C)N(CCO)CC1C(c2ccccc2)C1c1ccccc1 (centres undefined)
inactive: dose: 12.5 mg/kg/injection, schedule: Q04DX002 (ip), vehicle: Klucel (hydroxypropylcellulose) (HPC) 103 % of control | [1] 103 % of control | [2] 97 % of control

Cc1ccc(C(C)(C)CP(c2ccccc2)c2ccccc2)cc1
inactive: dose: 25.0 mg/kg/injection, schedule: Q04DX002 (ip), vehicle: saline with Tween-80 95 % of control | dose: 50.0 mg/kg/injection, schedule: Q04DX002 (ip), vehicle: saline with Tween-80 92 % of control | [3] 89 % of control

COc1ccc2c(c1)CSC(c1ccccc1)=C2
inactive: [1] 98 % of control | [2] 120 % of control | [4] 98 % of control

Nc1nc(N)c2ncn(C3OC(CO)C(O)C3O)c2n1 (centres undefined)
inactive: [5] 102 % of control | [6] 115 % of control

OC1c2ccccc2C(O)C2C3C=CC(CC3)C12 (centres undefined)
inactive: dose: 50.0 mg/kg/injection, schedule: Q01DX001 (ip), vehicle: carboxymethylcellulose (CMC) 93 % of control | dose: 100.0 mg/kg/injection, schedule: Q01DX001 (ip), vehicle: carboxymethylcellulose (CMC) 98 % of control | dose: 200.0 mg/kg/injection, schedule: Q01DX001 (ip), vehicle: carboxymethylcellulose (CMC) 98 % of control | dose: 400.0 mg/kg/injection, schedule: Q01DX001 (ip), vehicle: carboxymethylcellulose (CMC) 98 % of control

C[N+](C)(C)CCOC(=O)c1ccccc1CCl
inactive: [7] 98 % of control | [3] 102 % of control

O=C(NC(=O)C(Cl)Cl)Nc1ccc2c(c1)Cc1ccccc1-2
inactive: dose: 100.0 mg/kg/injection, schedule: Q01DX001 (ip), vehicle: Klucel (hydroxypropylcellulose) (HPC) 95 % of control | dose: 100.0 mg/kg/injection, schedule: Q01DX009 (ip), vehicle: Klucel (hydroxypropylcellulose) (HPC) 100 % of control | dose: 100.0 mg/kg/injection, schedule: Q04DX003 (ip), vehicle: Klucel (hydroxypropylcellulose) (HPC) 102 % of control | dose: 200.0 mg/kg/injection, schedule: Q01DX001 (ip), vehicle: Klucel (hydroxypropylcellulose) (HPC) 100 % of control | dose: 200.0 mg/kg/injection, schedule: Q01DX009 (ip), vehicle: Klucel (hydroxypropylcellulose) (HPC) 98 % of control | dose: 200.0 mg/kg/injection, schedule: Q04DX003 (ip), vehicle: Klucel (hydroxypropylcellulose) (HPC) 96 % of control | dose: 400.0 mg/kg/injection, schedule: Q01DX001 (ip), vehicle: Klucel (hydroxypropylcellulose) (HPC) 100 % of control | dose: 400.0 mg/kg/injection, schedule: Q01DX009 (ip), vehicle: Klucel (hydroxypropylcellulose) (HPC) 104 % of control | dose: 400.0 mg/kg/injection, schedule: Q04DX003 (ip), vehicle: Klucel (hydroxypropylcellulose) (HPC) 96 % of control

Cc1ccc(S(=O)(=O)O)cn1
inactive: [5] 94 % of control | [6] 97 % of control | [8] 92 % of control

O=C(O)C(SCc1ccccc1)c1ccccc1 (centres undefined)
inactive: [5] 91 % of control | [9] 95 % of control | [6] 98 % of control | dose: 200.0 mg/kg/injection, schedule: Q04DX003 (ip), vehicle: saline with Tween-80 95 % of control | [8] 92 % of control | dose: 400.0 mg/kg/injection, schedule: Q04DX003 (ip), vehicle: saline with Tween-80 101 % of control

COC(=O)C[N+]12CN3CN(CN(C3)C1)C2
inactive: dose: 50.0 mg/kg/injection, schedule: Q01DX001 (ip), vehicle: saline 98 % of control | [5] 100 % of control | dose: 100.0 mg/kg/injection, schedule: Q04DX003 (ip), vehicle: saline 107 % of control | [6] 96 % of control | dose: 200.0 mg/kg/injection, schedule: Q04DX003 (ip), vehicle: saline 107 % of control | [8] 107 % of control | dose: 400.0 mg/kg/injection, schedule: Q04DX003 (ip), vehicle: saline 108 % of control

CCC[CH2][Pb]([CH2]CCC)([CH2]CCC)[O]C(C)=O
inactive: [5] 101 % of control | [6] 95 % of control

COc1ccc(C23OC2Oc2cc(OC4CCCCO4)ccc2C3=O)cc1 (centres undefined)
inactive: dose: 50.0 mg/kg/injection, schedule: Q01DX001 (sc), vehicle: steriod suspending solution 103 % of control | dose: 100.0 mg/kg/injection, schedule: Q01DX001 (sc), vehicle: steriod suspending solution 108 % of control | dose: 200.0 mg/kg/injection, schedule: Q01DX001 (sc), vehicle: steriod suspending solution 106 % of control | dose: 400.0 mg/kg/injection, schedule: Q01DX001 (sc), vehicle: steriod suspending solution 103 % of control

N=Nc1c(O)[nH]c2ccccc12
inactive: [4] 92 % of control | dose: 200.0 mg/kg/injection, schedule: Q04DX002 (ip), vehicle: Klucel (hydroxypropylcellulose) (HPC) 96 % of control | dose: 400.0 mg/kg/injection, schedule: Q04DX002 (ip), vehicle: Klucel (hydroxypropylcellulose) (HPC) 92 % of control

COC1OC2COc3ccccc3OC2C2C1N2C(=N)N[N+](=O)[O-] (centres undefined)
inactive: dose: 40.0 mg/kg/injection, schedule: Q04DX002 (ip), vehicle: saline 102 % of control | dose: 160.0 mg/kg/injection, schedule: Q04DX002 (ip), vehicle: saline 102 % of control

CCCCC(=O)N1CCCC1
inactive: dose: 100.0 mg/kg/injection, schedule: Q04DX002 (ip), vehicle: saline 96 % of control | dose: 200.0 mg/kg/injection, schedule: Q04DX002 (ip), vehicle: saline 92 % of control | dose: 400.0 mg/kg/injection, schedule: Q04DX002 (ip), vehicle: saline 111 % of control

CCCCCCCCCCCCNCc1ccc(O)cc1
inactive: dose: 25.0 mg/kg/injection, schedule: Q01DX001 (ip), vehicle: other 95 % of control | dose: 25.0 mg/kg/injection, schedule: Q01DX009 (ip), vehicle: saline with Tween-80 96 % of control | dose: 25.0 mg/kg/injection, schedule: Q04DX003 (ip), vehicle: saline with Tween-80 98 % of control | dose: 50.0 mg/kg/injection, schedule: Q01DX001 (ip), vehicle: other 93 % of control | dose: 50.0 mg/kg/injection, schedule: Q01DX009 (ip), vehicle: saline with Tween-80 93 % of control | dose: 50.0 mg/kg/injection, schedule: Q04DX003 (ip), vehicle: saline with Tween-80 101 % of control | dose: 100.0 mg/kg/injection, schedule: Q01DX001 (ip), vehicle: other 93 % of control and 90 % of control | dose: 100.0 mg/kg/injection, schedule: Q01DX009 (ip), vehicle: saline with Tween-80 88 % of control | [9] 102 % of control

CN=C(N)NCCCCCCCCNC(N)=NC
inactive: dose: 5.0 mg/kg/injection, schedule: Q01DX001 (ip), vehicle: saline 95 % of control | dose: 10.0 mg/kg/injection, schedule: Q01DX001 (ip), vehicle: saline 101 % of control | dose: 20.0 mg/kg/injection, schedule: Q01DX001 (ip), vehicle: saline 101 % of control

CCCCCCCCCCCC(c1ccccc1)[N+](C)(C)C (centres undefined)
inactive: dose: 0.5 mg/kg/injection, schedule: Q01DX001 (ip), vehicle: saline 103 % of control | dose: 1.0 mg/kg/injection, schedule: Q01DX001 (ip), vehicle: saline 94 % of control | dose: 1.0 mg/kg/injection, schedule: Q01DX009 (ip), vehicle: saline 91 % of control | dose: 2.0 mg/kg/injection, schedule: Q01DX001 (ip), vehicle: saline 100 % of control | dose: 2.0 mg/kg/injection, schedule: Q01DX009 (ip), vehicle: saline 109 % of control | dose: 4.0 mg/kg/injection, schedule: Q01DX001 (ip), vehicle: saline 96 % of control | dose: 4.0 mg/kg/injection, schedule: Q01DX009 (ip), vehicle: saline 110 % of control | dose: 8.0 mg/kg/injection, schedule: Q01DX001 (ip), vehicle: saline 97 % of control

CCCC(CCC)(CCC)CCN
inactive: dose: 5.0 mg/kg/injection, schedule: Q01DX Z (ip), vehicle: carboxymethylcellulose (CMC) 91 % of control | dose: 10.0 mg/kg/injection, schedule: Q01DX Z (ip), vehicle: carboxymethylcellulose (CMC) 112 % of control | dose: 15.0 mg/kg/injection, schedule: Q01DX Z (ip), vehicle: carboxymethylcellulose (CMC) 106 % of control | dose: 20.0 mg/kg/injection, schedule: Q01DX Z (ip), vehicle: carboxymethylcellulose (CMC) 101 % of control

Brc1ccc(SSc2ccc(Br)cc2)cc1
inactive: [5] 110 % of control | [6] 95 % of control | [8] 95 % of control

O/N=C/c1ccco1
inactive: [7] 100 % of control | [3] 103 % of control | dose: 400.0 mg/kg/injection, schedule: Q04DX002 (ip), vehicle: saline with Tween-80 103 % of control

CC1=CC=CC(C)(Cc2ccc(-c3ccc(CC4(C)C=CC=C(C)C4=O)cc3)cc2)C1=O (centres undefined)
inactive: dose: 100.0 mg/kg/injection, schedule: Q01DX001 (ip), vehicle: saline sonified 92 % of control | dose: 200.0 mg/kg/injection, schedule: Q01DX001 (ip), vehicle: saline sonified 90 % of control | dose: 400.0 mg/kg/injection, schedule: Q01DX001 (ip), vehicle: saline sonified 95 % of control
